According to US12528790B2, “Amide derivative having antiviral activity” (Shionogi & Co., Ltd., priority 2020, dated 2026):

Tested on: RSV A2 strain
Experiment: In vitro CPE (CytoPathic Effect) inhibition effect evaluation test, RSV type A
Assay type: cell-based
Settings: human respiratory syncytial virus, HEp-2, 96 h, read-out: EC50, inhibitory effect against RSV type A (CPE inhibition)
Method: The test sample is diluted in advance to an appropriate concentration with DMSO, and 3-fold series of serial dilutions were prepared on a 384-well plate (0.32 μL/well). HEp-2 cells (CCL-23; ATCC) adjusted at appropriate number (2.4×10^5 cells/mL) in 2% FBS E-MEM (prepared by adding kanamycin and FBS to Eagle's Minimum Essential Medium; Invitrogen) were added at 12.5 μL/well to the 384-well plate previously aliquoted with the test samples. The RSV A2 strain was diluted to an appropriate concentration in a culture medium and added to the 384-well plate containing the test sample at 12.5 μL/well. The culture medium was added additionally to the 384-well plate, and the test was started with 50 μL/well. Control wells were prepared with only virus-free culture medium. The plate was incubated in a 5% CO2 incubator at 37° C. for 4 days, and the plate was then placed at room temperature for 30 minutes. CellTiter-Glo (registered trademark) 2.0 assay (Promega) was added at 15 μL/well, mixed for 30 seconds, and the plate was placed for approximately 1 hour. The luminescent signal was then measured by EnVision (PerkinElmer). The inhibitory effect of the test agents on RSV-induced CPE was calculated as 0% and 100% inhibition rate for each sample concentration based on the level of remaining viable cells by CellTiter-Glo (registered trademark) 2.0, with the EC50 value for each compound calculated by nonlinear regression as the concentration that inhibits RSV-induced CPE by 50%. In the case of evaluation against RSV type B, RSV B (Wash/18537 strain) was infected in the same manner as the type A, cultured for 5 days, and quantitated in the same manner as for the A2 strain.

Compound	EC50
O=C(NC1(C(=O)O)C2CC3CC(C2)CC1C3)c1cnc(N2C(=O)C3(C=CCC3)c3cc(OC4CCN(c5ncccn5)CC4)ccc32)nc1C(F)(F)F (racemic) [Compound I-269]	1.3 nM

Same assay, conditions: human respiratory syncytial virus; inhibitory effect against RSV type A (RSV A2 strain), HEp-2 cells, CPE inhibition; read-out: EC50

EC50	Compound
10 to 100 nM	O=C(NC(C(=O)O)C1CCCCC1)c1cnc(N2CCc3cc(OC4CCN(c5ncccn5)CC4)ccc32)nc1C(F)(F)F (racemic) [Compound I-50]
10 to 100 nM	O=C(NC1(C(=O)O)CCCCC1)c1cnc(N2CCc3cc(OCC4CN(CC(F)(F)F)CCO4)ccc32)nc1C(F)(F)F (racemic) [Compound I-58]
10 to 100 nM	O=C(NC1(C(=O)O)CCCCC1)c1cnc(N2CCc3cc(OCC4CN(c5ncccn5)CCO4)ccc32)nc1C(F)(F)F (racemic) [Compound I-66]
10 to 100 nM	NC(=O)C1CC1c1ccc2c(c1)CCN2c1ncc(C(=O)NC2(C(=O)O)C3CC4CC(C3)CC2C4)c(C(F)(F)F)n1 (racemic) [Compound I-215]
10 to 100 nM	CNC(=O)C1CC1c1ccc2c(c1)CCN2c1ncc(C(=O)NC2(C(=O)O)C3CC4CC(C3)CC2C4)c(C(F)(F)F)n1 (racemic) [Compound I-216]
10 to 100 nM	O=C(NC1(C(=O)O)C2CC3CC(C2)CC1C3)c1cnc(-c2cn(C3CCC(F)(F)CC3)c3ccc(OC4CCCN(C5COC5)C4)cc23)nc1C(F)(F)F (racemic) [Compound I-233]
< 10 nM	O=C(NC1(C(=O)O)C2CC3CC(C2)CC1C3)c1ccc(-c2cn(C3CCC(F)(F)CC3)c3cc(OC4CCCN(C5COC5)C4)ccc23)nc1C(F)(F)F (racemic) [Compound I-235]
< 10 nM	O=C(NC1(C(=O)O)C2CC3CC(C2)CC1C3)c1cnc(N2CC3(C=CCC3)c3cc(OC4CCN(c5ncccn5)CC4)ccc32)nc1C(F)(F)F (racemic) [Compound I-243]
< 10 nM	CC1(C)CCCC(NC(=O)c2cnc(-c3cn(C4CCC(F)(F)CC4)c4cc(OC5CCN(c6ncccn6)CC5)ccc34)nc2C(F)(F)F)(C(=O)O)C1 (racemic) [Compound I-262]
< 10 nM	CC(C)(C)C(NC(=O)c1cnc(-c2cn(C3CCC(F)(F)CC3)c3cc(OC4CCN(c5ncccn5)CC4)ccc23)nc1C(F)(F)F)C(=O)O (racemic) [Compound I-263]
< 10 nM	O=C(NC1(C(=O)O)C2CC3CC(C2)CC1C3)c1ccc(-c2cn(CC3CC3(F)F)c3cc(OC4CCN(c5ncccn5)CC4)ccc23)nc1C(F)(F)F (racemic) [Compound I-266]
< 10 nM	CC(NC(=O)c1cnc(-c2cn(C3CCC(F)(F)CC3)c3cc(OC4CCN(c5ncccn5)CC4)ccc23)nc1C(F)(F)F)(C(=O)O)C1CCCCC1 (racemic) [Compound I-267]
< 10 nM	CC(C)(C)CC(NC(=O)c1cnc(-c2cn(C3CCC(F)(F)CC3)c3cc(OC4CCN(c5ncccn5)CC4)ccc23)nc1C(F)(F)F)C(=O)O (racemic) [Compound I-271]
< 10 nM	O=C(NC1(C(=O)O)C2CC3CC(C2)CC1C3)c1cnc(-c2cn(C3CCC(F)(F)CC3)c3cc(OC4CCN(C5CCOC5)CC4)ccc23)nc1C(F)(F)F (racemic) [Compound I-277]
< 10 nM	O=C(NC1(C(=O)O)C2CC3CC(C2)CC1C3)c1ccc(-c2cn(C3CCCOC3)c3cc(OC4CCN(c5ncccn5)CC4)ccc23)nc1C(F)(F)F (racemic) [Compound I-367]
< 10 nM	O=C(NC1(C(=O)O)C2CC3CC(C2)CC1C3)c1cnc(-c2cn(C3CCOC3)c3cc(OC4CCN(c5ncc(F)cn5)CC4)ccc23)nc1C(F)(F)F (racemic) [Compound I-410]
< 10 nM	CC(N1CCC(Oc2ccc3c(-c4ncc(C(=O)NC5(C(=O)O)C6CC7CC(C6)CC5C7)c(C(F)(F)F)n4)cn(C4CCC(F)(F)CC4)c3c2)CC1)C(F)(F)F (racemic) [Compound I-449]
< 10 nM	O=C(NC1(C(=O)O)C2CC3CC(C2)CC1C3)c1cnc(N2CC3(CCOCC3)c3cc(OCC(O)C(F)(F)F)ccc32)nc1C(F)(F)F (racemic) [Compound I-458]
< 10 nM	O=C(NC1(C(=O)O)C2CC3CC(C2)CC1C3)c1cnc(-c2cn(C3CCC(F)(F)C3)c3cc(OC4CCN(c5ncc(F)cn5)CC4)ccc23)nc1C(F)(F)F (racemic) [Compound I-470]
< 10 nM	COc1cccc(COc2ccc3c(ccn3-c3ncc(C(=O)NC4(C(=O)O)CC5CCC4C5)c(C(F)(F)F)n3)c2)c1 (single isomer, unassigned) [Compound I-18]
< 10 nM	COC12CC3CC(C1)C(NC(=O)c1cnc(N4CC5(CCOCC5)c5cc(OC6CCN(c7ncccn7)CC6)ccc54)nc1C(F)(F)F)(C(=O)O)C(C3)C2 (single isomer, unassigned) [Compound I-210]
< 10 nM	CC1CC(Oc2ccc3c(-c4ncc(C(=O)NC5(C(=O)O)C6CC7CC(C6)CC5C7)c(C(F)(F)F)n4)cn(C4CCC(F)(F)CC4)c3c2)CCN1c1ncc(F)cn1 (single isomer, unassigned) [Compound I-385]

Same assay, conditions: inhibitory effect against RSV type A (RSV A2 strain), HEp-2 cells, CPE inhibition; read-out: EC50

EC50	Compound
< 10 nM	O=C(NC1(C(=O)O)C2CC3CC(C2)CC1C3)c1cnc(N2CC3(CCN(C4COC4)C3)c3cc(OC4CCN(c5ncccn5)CC4)ccc32)nc1C(F)(F)F (racemic) [Compound I-333]
< 10 nM	O=C(NC1(C(=O)O)C2CC3CC(C2)CC1C3)c1cnc(N2CC3(CCN(c4ncc(F)cn4)C3)c3cc(OC4CCN(c5ncccn5)CC4)ccc32)nc1C(F)(F)F (racemic) [Compound I-361]
< 10 nM	CC(=O)N1CCC2(C1)CN(c1ncc(C(=O)NC3(C(=O)O)C4CC5CC(C4)CC3C5)c(C(F)(F)F)n1)c1ccc(OC3CCN(c4ncccn4)CC3)cc12 (racemic) [Compound I-362]
< 10 nM	CCNC(=O)N1CCC2(C1)CN(c1ncc(C(=O)NC3(C(=O)O)C4CC5CC(C4)CC3C5)c(C(F)(F)F)n1)c1ccc(OC3CCN(c4ncccn4)CC3)cc12 (racemic) [Compound I-364]
10 to 100 nM	O=C(NC1(C(=O)O)C2CC3CC1CC(O)(C3)C2)c1cnc(N2CCc3cc(OCCC4CCOCC4)ccc32)nc1C(F)(F)F (single isomer, unassigned) [Compound I-97]
< 10 nM	COC12CC3CC(C1)C(NC(=O)c1cnc(N4CC5(CCOCC5)c5cc(OC6CCN(c7ncccn7)CC6)ccc54)nc1C(F)(F)F)(C(=O)O)C(C3)C2 (single isomer, unassigned) [Compound I-211]
< 10 nM	O=C(NC1(C(=O)O)C2CC3CC(C2)CC1C3)c1cnc(N2CC3(CC4CCC(C3)O4)c3cc(OC4CCN(c5ncccn5)CC4)ccc32)nc1C(F)(F)F (single isomer, unassigned) [Compound I-300]
< 10 nM	CC1CC(Oc2ccc3c(-c4ncc(C(=O)NC5(C(=O)O)C6CC7CC(C6)CC5C7)c(C(F)(F)F)n4)cn(C4CCC(F)(F)CC4)c3c2)CCN1c1ncc(F)cn1 (single isomer, unassigned) [Compound I-386]

Compound	EC50
COc1cccc(COc2ccc3c(c2)CCN3c2ncc(C(=O)NC3(C(=O)O)CC4CCC3C4)c(C(F)(F)F)n2)c1 (single isomer, unassigned) [Compound I-17]	< 10 nM
COc1cccc(COc2ccc3c(c2)CCN3c2ncc(C(=O)NC3(C(=O)O)CC4CCC3C4)c(C(F)(F)F)n2)c1 (single isomer, unassigned) [Compound I-19]	< 10 nM
Cn1ncc2c1CCC(Oc1ccc3c(c1)C1(CCOCC1)CN3c1ncc(C(=O)NC3(C(=O)O)C4CC5CC(C4)CC3C5)c(C(F)(F)F)n1)C2 (single isomer, unassigned) [Compound I-191]	< 10 nM
